In PMC11314561, “Design and Synthesis of Novel Aminoindazole-pyrrolo[2,3-b]pyridine Inhibitors of IKKα That Selectively Perturb Cellular Non-Canonical NF-κB Signalling” (Molecules, 2024):

Columns and labels:
Experiment in all cases: kinase panel
Assay type in all cases: biochemical
EphA4(h) = EphA4(h) (Homo sapiens, UniProt P54764)
In short: (§1)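 Three compounds in the series were profiled against a panel of 231 kinases, and activity is reported as % inhibition. For one compound, a subset of 98 kinases was selected on the basis of its structural similarity to another series member.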

CK1γ2(h) = CK1γ2(h) (Homo sapiens, UniProt P78368)
In short: as §1

DMPK(h) = DMPK(h) (Homo sapiens, UniProt Q09013)
In short: as §1

IGF-1R(h), activated = IGF-1R(h), activated (Homo sapiens, UniProt P08069)
In short: as §1

MRCKα(h) = MRCKα(h) (Homo sapiens, UniProt Q5VT25)
In short: as §1

PEK(h) = PEK(h) (Homo sapiens, UniProt Q9NZJ5)
In short: as §1

PKCζ(h) = PKCζ(h) (Homo sapiens, UniProt Q05513)
In short: as §1

Ron(h) = Ron(h) (Homo sapiens, UniProt Q04912)
In short: as §1

SGK2(h) = SGK2(h) (Homo sapiens, UniProt Q9HBY8)
In short: as §1

PAK4(h) = PAK4(h) (Homo sapiens, UniProt O96013)
In short: as §1

DDR2(h) = DDR2(h) (Homo sapiens, UniProt Q16832)
In short: as §1

DAPK2(h) = DAPK2(h) (Homo sapiens, UniProt Q9UIK4)
In short: as §1

RIPK2(h) = RIPK2(h) (Homo sapiens, UniProt O43353)
In short: as §1

TLK2(h) = TLK2(h) (Homo sapiens, UniProt Q86UE8)
In short: as §1

IGF-1R(h) = IGF-1R(h) (Homo sapiens, UniProt P08069)
In short: as §1

FGFR4(h) = FGFR4(h) (Homo sapiens, UniProt P22455)
In short: as §1

SRPK2(h) = SRPK2(h) (Homo sapiens, UniProt P78362)
In short: as §1

EphA5(h) = EphA5(h) (Homo sapiens, UniProt P54756)
In short: as §1

Fyn(h) = Fyn(h) (Homo sapiens, UniProt P06241)
In short: as §1

Itk(h) = Itk(h) (Homo sapiens, UniProt Q08881)
In short: as §1

TAO2(h) = TAO2(h) (Homo sapiens, UniProt Q9UL54)
In short: as §1

IRR(h) = IRR(h) (Homo sapiens, UniProt P14616)
In short: as §1

Tec(h) activated = Tec(h) activated (Homo sapiens, UniProt P42680)
In short: as §1

MAPK2(h) = MAPK2(h) (Homo sapiens, UniProt P28482)
In short: as §1

Ros(h) = Ros(h) (Homo sapiens, UniProt P08922)
In short: as §1

PKBγ(h) = PKBγ(h) (Homo sapiens, UniProt Q9Y243)
In short: as §1

FGFR2(h) = FGFR2(h) (Homo sapiens, UniProt P21802)
In short: as §1

NEK6(h) = NEK6(h) (Homo sapiens, UniProt Q9HC98)
In short: as §1

Plk3(h) = Plk3(h) (Homo sapiens, UniProt Q9H4B4)
In short: as §1

PKCβII(h) = PKCβII(h) (Homo sapiens, UniProt P05771)
In short: as §1

Rsk2(h) = Rsk2(h) (Homo sapiens, UniProt P51812)
In short: as §1

PAK6(h) = PAK6(h) (Homo sapiens, UniProt Q9NQU5)
In short: as §1

EphB3(h) = EphB3(h) (Homo sapiens, UniProt P54753)
In short: as §1

EphB4(h) = EphB4(h) (Homo sapiens, UniProt P54760)
In short: as §1

MRCKβ(h) = MRCKβ(h) (Homo sapiens, UniProt Q9Y5S2)
In short: as §1

MSK2(h) = MSK2(h) (Homo sapiens, UniProt O75676)
In short: as §1

LOK(h) = LOK(h) (Homo sapiens, UniProt O94804)
In short: as §1

MKK6(h) = MKK6(h) (Homo sapiens, UniProt P52564)
In short: as §1

GRK7(h) = GRK7(h) (Homo sapiens, UniProt Q8WTQ7)
In short: as §1

BTK(h) = BTK(h) (Homo sapiens, UniProt Q06187)
In short: as §1

CSK(h) = CSK(h) (Homo sapiens, UniProt P41240)
In short: as §1

Lck(h) activated = Lck(h) activated (Homo sapiens, UniProt P06239)
In short: as §1

MKK6(h), sequence (P52564 whole entry): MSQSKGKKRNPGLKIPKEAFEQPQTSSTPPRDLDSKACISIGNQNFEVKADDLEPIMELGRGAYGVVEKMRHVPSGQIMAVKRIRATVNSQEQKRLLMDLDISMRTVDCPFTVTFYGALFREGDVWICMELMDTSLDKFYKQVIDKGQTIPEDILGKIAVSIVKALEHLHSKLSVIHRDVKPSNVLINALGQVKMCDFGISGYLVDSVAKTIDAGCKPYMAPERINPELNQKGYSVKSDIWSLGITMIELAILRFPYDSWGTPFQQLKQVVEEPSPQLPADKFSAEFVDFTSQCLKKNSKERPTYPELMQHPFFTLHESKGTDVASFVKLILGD
EphB4(h), sequence (P54760 16-987): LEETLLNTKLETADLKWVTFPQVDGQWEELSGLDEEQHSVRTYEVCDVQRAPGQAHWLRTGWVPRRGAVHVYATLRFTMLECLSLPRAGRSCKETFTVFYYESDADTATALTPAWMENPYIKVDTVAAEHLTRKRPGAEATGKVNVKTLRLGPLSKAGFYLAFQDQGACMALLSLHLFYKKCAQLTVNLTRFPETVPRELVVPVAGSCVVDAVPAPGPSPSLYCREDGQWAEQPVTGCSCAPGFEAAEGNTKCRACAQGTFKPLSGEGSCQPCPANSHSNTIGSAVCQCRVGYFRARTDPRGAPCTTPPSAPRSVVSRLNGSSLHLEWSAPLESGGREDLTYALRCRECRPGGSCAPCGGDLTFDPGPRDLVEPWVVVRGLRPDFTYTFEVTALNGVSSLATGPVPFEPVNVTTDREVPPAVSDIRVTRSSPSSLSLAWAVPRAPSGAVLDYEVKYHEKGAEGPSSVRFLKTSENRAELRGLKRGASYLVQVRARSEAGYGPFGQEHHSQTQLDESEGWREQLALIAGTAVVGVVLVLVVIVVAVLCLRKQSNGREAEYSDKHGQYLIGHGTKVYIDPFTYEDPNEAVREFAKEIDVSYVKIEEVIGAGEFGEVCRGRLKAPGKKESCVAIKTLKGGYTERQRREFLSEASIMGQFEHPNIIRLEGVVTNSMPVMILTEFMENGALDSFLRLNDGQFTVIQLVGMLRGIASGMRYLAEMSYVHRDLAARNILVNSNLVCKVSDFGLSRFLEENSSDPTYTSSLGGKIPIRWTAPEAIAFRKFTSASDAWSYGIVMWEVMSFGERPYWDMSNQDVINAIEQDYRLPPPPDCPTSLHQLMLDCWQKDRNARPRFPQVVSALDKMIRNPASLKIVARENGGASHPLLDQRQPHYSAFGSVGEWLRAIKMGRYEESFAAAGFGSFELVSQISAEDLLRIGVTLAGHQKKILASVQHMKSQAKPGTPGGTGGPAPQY
Rsk2(h), sequence (P51812 whole entry): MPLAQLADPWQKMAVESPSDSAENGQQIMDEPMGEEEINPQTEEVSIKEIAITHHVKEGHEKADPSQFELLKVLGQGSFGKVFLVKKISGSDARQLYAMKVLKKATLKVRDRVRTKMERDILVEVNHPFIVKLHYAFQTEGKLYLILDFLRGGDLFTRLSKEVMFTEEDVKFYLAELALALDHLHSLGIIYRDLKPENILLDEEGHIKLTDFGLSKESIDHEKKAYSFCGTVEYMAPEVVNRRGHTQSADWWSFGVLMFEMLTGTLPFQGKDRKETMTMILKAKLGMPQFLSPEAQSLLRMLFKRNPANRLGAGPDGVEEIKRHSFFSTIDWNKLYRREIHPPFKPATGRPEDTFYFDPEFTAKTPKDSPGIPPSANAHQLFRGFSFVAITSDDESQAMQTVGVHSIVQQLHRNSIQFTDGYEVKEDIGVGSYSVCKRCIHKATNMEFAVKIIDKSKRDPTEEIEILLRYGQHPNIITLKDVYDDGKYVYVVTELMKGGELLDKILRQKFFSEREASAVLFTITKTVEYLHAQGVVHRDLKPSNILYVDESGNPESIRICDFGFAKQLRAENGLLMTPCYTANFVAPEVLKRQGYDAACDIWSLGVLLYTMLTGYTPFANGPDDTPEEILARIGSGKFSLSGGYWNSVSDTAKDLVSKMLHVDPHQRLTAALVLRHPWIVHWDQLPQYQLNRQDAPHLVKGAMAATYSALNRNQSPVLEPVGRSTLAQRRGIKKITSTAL
BTK(h), sequence (Q06187 whole entry): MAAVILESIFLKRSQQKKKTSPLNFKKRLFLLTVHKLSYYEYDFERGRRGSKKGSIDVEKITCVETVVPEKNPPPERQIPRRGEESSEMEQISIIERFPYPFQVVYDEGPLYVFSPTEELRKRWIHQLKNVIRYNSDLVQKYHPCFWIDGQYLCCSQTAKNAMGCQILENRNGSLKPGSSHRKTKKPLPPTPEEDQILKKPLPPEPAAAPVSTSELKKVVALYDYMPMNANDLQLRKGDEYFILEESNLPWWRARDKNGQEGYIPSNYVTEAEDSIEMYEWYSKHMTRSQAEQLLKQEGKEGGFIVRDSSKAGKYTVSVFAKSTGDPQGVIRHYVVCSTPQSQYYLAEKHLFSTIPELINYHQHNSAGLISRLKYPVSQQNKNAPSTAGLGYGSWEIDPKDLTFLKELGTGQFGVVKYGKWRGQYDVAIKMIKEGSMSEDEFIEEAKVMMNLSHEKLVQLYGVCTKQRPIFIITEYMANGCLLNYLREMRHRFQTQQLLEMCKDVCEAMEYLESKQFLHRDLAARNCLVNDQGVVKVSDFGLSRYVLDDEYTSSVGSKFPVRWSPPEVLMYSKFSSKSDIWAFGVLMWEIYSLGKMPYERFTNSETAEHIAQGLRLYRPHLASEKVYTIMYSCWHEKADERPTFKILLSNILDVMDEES
CSK(h), sequence (P41240 whole entry): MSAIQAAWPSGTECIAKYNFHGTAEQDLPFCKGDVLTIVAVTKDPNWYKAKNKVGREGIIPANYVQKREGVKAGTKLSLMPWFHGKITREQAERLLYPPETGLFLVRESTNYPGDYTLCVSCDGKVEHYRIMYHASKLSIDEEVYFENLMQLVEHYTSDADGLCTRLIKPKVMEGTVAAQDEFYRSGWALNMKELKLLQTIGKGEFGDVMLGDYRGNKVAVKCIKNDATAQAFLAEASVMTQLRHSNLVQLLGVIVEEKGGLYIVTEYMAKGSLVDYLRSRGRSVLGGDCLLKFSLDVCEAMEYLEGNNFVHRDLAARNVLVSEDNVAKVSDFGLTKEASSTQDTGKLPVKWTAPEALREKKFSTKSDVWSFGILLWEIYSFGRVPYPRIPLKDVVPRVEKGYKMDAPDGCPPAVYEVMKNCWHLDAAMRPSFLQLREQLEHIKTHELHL
PEK(h), sequence (Q9NZJ5 30-1116): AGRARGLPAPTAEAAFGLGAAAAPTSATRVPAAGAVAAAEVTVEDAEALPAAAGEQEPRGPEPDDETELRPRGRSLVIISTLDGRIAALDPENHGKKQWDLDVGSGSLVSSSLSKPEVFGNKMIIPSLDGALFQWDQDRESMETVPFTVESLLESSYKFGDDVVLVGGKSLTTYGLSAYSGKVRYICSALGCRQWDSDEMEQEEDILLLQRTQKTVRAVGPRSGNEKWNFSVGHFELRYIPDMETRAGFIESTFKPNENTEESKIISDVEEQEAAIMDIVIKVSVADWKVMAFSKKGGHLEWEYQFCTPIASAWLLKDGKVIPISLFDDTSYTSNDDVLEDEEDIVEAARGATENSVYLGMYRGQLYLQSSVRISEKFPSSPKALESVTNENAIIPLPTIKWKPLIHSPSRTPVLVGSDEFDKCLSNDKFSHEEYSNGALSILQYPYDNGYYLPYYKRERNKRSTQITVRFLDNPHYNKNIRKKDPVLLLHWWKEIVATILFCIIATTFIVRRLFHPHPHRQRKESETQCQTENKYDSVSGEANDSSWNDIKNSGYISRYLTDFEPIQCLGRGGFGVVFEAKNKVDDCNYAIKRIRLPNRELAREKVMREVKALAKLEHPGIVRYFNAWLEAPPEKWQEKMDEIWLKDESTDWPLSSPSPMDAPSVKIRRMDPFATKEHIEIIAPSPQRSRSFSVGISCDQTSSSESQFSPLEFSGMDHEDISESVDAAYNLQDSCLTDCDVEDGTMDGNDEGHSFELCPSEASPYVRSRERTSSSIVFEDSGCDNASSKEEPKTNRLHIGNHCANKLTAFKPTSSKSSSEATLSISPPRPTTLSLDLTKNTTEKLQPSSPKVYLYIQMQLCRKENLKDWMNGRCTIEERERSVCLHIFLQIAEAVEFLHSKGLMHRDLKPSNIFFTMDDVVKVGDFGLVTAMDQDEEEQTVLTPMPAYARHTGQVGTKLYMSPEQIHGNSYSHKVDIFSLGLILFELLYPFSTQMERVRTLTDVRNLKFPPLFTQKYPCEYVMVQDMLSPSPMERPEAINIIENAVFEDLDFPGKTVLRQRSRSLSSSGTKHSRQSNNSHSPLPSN
SRPK2(h), sequence (P78362 whole entry): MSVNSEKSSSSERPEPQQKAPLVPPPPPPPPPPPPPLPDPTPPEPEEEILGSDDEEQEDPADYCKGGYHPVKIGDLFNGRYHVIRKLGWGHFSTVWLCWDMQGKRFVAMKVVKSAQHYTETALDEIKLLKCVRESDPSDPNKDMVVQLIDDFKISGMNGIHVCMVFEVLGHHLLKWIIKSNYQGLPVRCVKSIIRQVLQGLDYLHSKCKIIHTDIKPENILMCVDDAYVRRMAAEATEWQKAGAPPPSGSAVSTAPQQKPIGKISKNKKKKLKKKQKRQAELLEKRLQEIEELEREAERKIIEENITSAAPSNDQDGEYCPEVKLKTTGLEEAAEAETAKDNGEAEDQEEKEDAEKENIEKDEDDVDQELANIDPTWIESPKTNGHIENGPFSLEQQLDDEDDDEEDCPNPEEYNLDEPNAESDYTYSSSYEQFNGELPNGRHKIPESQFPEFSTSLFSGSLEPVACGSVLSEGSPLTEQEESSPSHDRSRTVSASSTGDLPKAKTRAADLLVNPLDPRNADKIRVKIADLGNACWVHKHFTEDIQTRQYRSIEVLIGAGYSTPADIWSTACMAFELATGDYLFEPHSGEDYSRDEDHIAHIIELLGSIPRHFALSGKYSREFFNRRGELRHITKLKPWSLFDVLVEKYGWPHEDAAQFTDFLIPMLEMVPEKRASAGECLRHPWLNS

Nc1n[nH]c2ccc(-c3ccnc4[nH]c(-c5cccc(OCc6ccccc6)c5)cc34)cc12 [Compound 5r [SU1261]]
inhibition at 1 µM (EphA4(h)): 2% | inhibition at 1 µM (CK1γ2(h)): 28% | inhibition at 1 µM (DMPK(h)): -4% | inhibition at 1 µM (IGF-1R(h), activated): 32% | inhibition at 1 µM (MRCKα(h)): -18% | inhibition at 1 µM (PEK(h)): 8% | inhibition at 1 µM (PKCζ(h)): 4% | inhibition at 1 µM (Ron(h)): 7% | inhibition at 1 µM (SGK2(h)): 30% | inhibition at 1 µM (PAK4(h)): 37% | inhibition at 1 µM (DDR2(h)): -17% | inhibition at 1 µM (DAPK2(h)): 13% | inhibition at 1 µM (RIPK2(h)): 19% | inhibition at 1 µM (TLK2(h)): 0% | inhibition at 1 µM (IGF-1R(h)): 14% | inhibition at 1 µM (FGFR4(h)): 6% | inhibition at 1 µM (SRPK2(h)): -7% | inhibition at 1 µM (EphA5(h)): 8% | inhibition at 1 µM (Fyn(h)): 33% | inhibition at 1 µM (Itk(h)): 20% | inhibition at 1 µM (TAO2(h)): 7% | inhibition at 1 µM (IRR(h)): 1% | inhibition at 1 µM (Tec(h) activated): 62% | inhibition at 1 µM (MAPK2(h)): -1% | inhibition at 1 µM (Ros(h)): 11% | inhibition at 1 µM (PKBγ(h)): 0% | inhibition at 1 µM (FGFR2(h)): 39% | inhibition at 1 µM (NEK6(h)): 3% | inhibition at 1 µM (Plk3(h)): -7% | inhibition at 1 µM (PKCβII(h)): -1% | inhibition at 1 µM (Rsk2(h)): 0% | inhibition at 1 µM (PAK6(h)): 22% | inhibition at 1 µM (EphB3(h)): -4% | inhibition at 1 µM (EphB4(h)): 25% | inhibition at 1 µM (MRCKβ(h)): 4% | inhibition at 1 µM (MSK2(h)): -3% | inhibition at 1 µM (LOK(h)): 51% | inhibition at 1 µM (MKK6(h)): 2% | inhibition at 1 µM (GRK7(h)): -3% | inhibition at 1 µM (BTK(h)): 3% | inhibition at 1 µM (CSK(h)): -4% | inhibition at 1 µM (Lck(h) activated): 23%

Nc1n[nH]c2ccc(-c3ccnc4[nH]c(-c5ccccc5)cc34)cc12 [Compound 4]
inhibition at 1 µM (EphA4(h)): 9% | inhibition at 1 µM (CK1γ2(h)): 49% | inhibition at 1 µM (DMPK(h)): 5% | inhibition at 1 µM (IGF-1R(h), activated): 61% | inhibition at 1 µM (MRCKα(h)): -22% | inhibition at 1 µM (PEK(h)): 10% | inhibition at 1 µM (PKCζ(h)): -1% | inhibition at 1 µM (Ron(h)): 53% | inhibition at 1 µM (SGK2(h)): 44% | inhibition at 1 µM (PAK4(h)): 42% | inhibition at 1 µM (DDR2(h)): 16% | inhibition at 1 µM (DAPK2(h)): 2% | inhibition at 1 µM (RIPK2(h)): 54% | inhibition at 1 µM (TLK2(h)): -8% | inhibition at 1 µM (IGF-1R(h)): 64% | inhibition at 1 µM (FGFR4(h)): 8% | inhibition at 1 µM (SRPK2(h)): -5% | inhibition at 1 µM (EphA5(h)): 19% | inhibition at 1 µM (Fyn(h)): 64% | inhibition at 1 µM (Itk(h)): 18% | inhibition at 1 µM (TAO2(h)): 46% | inhibition at 1 µM (IRR(h)): 26% | inhibition at 1 µM (Tec(h) activated): 29% | inhibition at 1 µM (MAPK2(h)): 29% | inhibition at 1 µM (Ros(h)): 16% | inhibition at 1 µM (PKBγ(h)): 12% | inhibition at 1 µM (FGFR2(h)): 79% | inhibition at 1 µM (NEK6(h)): 6% | inhibition at 1 µM (Plk3(h)): -6% | inhibition at 1 µM (PKCβII(h)): 9% | inhibition at 1 µM (Rsk2(h)): 28% | inhibition at 1 µM (PAK6(h)): 32% | inhibition at 1 µM (EphB3(h)): 8% | inhibition at 1 µM (EphB4(h)): 53% | inhibition at 1 µM (MRCKβ(h)): -10% | inhibition at 1 µM (MSK2(h)): 12% | inhibition at 1 µM (LOK(h)): 67% | inhibition at 1 µM (MKK6(h)): 17% | inhibition at 1 µM (GRK7(h)): 10% | inhibition at 1 µM (BTK(h)): 11% | inhibition at 1 µM (CSK(h)): -16% | inhibition at 1 µM (Lck(h) activated): 44%
